Holding throughout (assay): relative viability (nuclei count vs DMSO), 5 days (fraction); higher = more cells survive
Compound in assay [1]: C[C@]12O[C@H](C[C@]1(O)CO)n1c3ccccc3c3c4c(c5c6ccccc6n2c5c31)CNC4=O [Lestaurtinib] + CC1(C)CCC(c2ccc(Cl)cc2)=C(CN2CCN(c3ccc(C(=O)NS(=O)(=O)c4ccc(N[C@H](CCN5CCOCC5)CSc5ccccc5)c(S(=O)(=O)C(F)(F)F)c4)cc3)CC2)C1 [Navitoclax] (partner 0.5 µM)
The essentials:
(§1)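 One day after seeding in 1536-well plates, lung cancer cell lines were dosed by pin tool. Dosing was either single-drug or a fixed anchor-drug dose plus five library-drug doses (not always all listed) in √10 steps. After 5 days, nuclei were stained in one fix-and-stain step and counted on 4× images, and relative viability is the nuclei count of treated wells over that of vehicle wells, given as the median of duplicate plates.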

Compound in assay [2]: C1/C(=C\C2=CC=CS2)/C(=O)/C(=C/C3=CC=CS3)/C1 + COc1cccc2cc(-c3nc([C@H]4CC[C@H](C(=O)O)CC4)n4ncnc(N)c34)[nH]c12 [OSI-027] (partner 0.5 µM)
The essentials:
as §1

Compound in the assay “TPCA-1 + Trametinib”: C1=CC(=CC=C1C2=CC(=C(S2)NC(=O)N)C(=O)N)F [TPCA-1] + CC(=O)Nc1cccc(-n2c(=O)n(C3CC3)c(=O)c3c(Nc4ccc(I)cc4F)n(C)c(=O)c(C)c32)c1 [Trametinib] (partner 0.02 µM)
The essentials:
as §1

Compound in the assay “TPCA-1 + Luminespib”: C1=CC(=CC=C1C2=CC(=C(S2)NC(=O)N)C(=O)N)F [TPCA-1] + CCNC(=O)c1noc(-c2cc(C(C)C)c(O)cc2O)c1-c1ccc(CN2CCOCC2)cc1 [Luminespib] (partner 0.01 µM)
In a few lines: as §1

Regarding UMC-11, the relative viability in assay [1] (first compound 0.005 µM) came out at 0.294; in assay [1] (first compound 0.01581 µM) it was 0.275; in assay [1] (first compound 0.05 µM), 0.251; in assay [1] (first compound 0.1581 µM) it was 0.144; in assay [1] (first compound 0.5 µM), 0.143; in assay [2] (first compound 0.2 µM) it was 0.474. The relative viability is 0.484 in assay [2] (first compound 0.6325 µM); 0.45 in assay [2] (first compound 20 µM); 0.648 with TPCA-1 + Trametinib (first compound 0.04 µM); 0.612 with TPCA-1 + Trametinib (first compound 0.1265 µM); 0.804 in the assay with TPCA-1 + Trametinib (first compound 0.4 µM); 0.831 with TPCA-1 + Trametinib (first compound 1.265 µM). Besides, the relative viability with TPCA-1 + Trametinib (first compound 4 µM) stood at 0.152; with TPCA-1 + Luminespib (first compound 0.04 µM) it was 1.18; in the assay with TPCA-1 + Luminespib (first compound 0.1265 µM), 0.914; with TPCA-1 + Luminespib (first compound 0.4 µM) it was 1.09; with TPCA-1 + Luminespib (first compound 1.265 µM), 0.957; with TPCA-1 + Luminespib (first compound 4 µM), 0.684.

For the origin of these results see the supplement of paper PMC10307832.
